Source: patent publication US8097585B2, “Methods of treating inflammation by administration of heme oxygenase-1 and products of heme degradation” (priority 2002, dated 2012)
Structures can show the parent of a compound that is named as a salt.

Legend:
[1] = system: DSS-colitis; test: DSS-colitis (acute colitis) mouse model: weight loss, DAI, symptoms, crypt score; assay type: in vivo, C57BL/6 mice; settings: for mean time to development of loose stool / mean time to bleeding: Kaplan-Meier; for mean time to development of loose stool: non-treated 3 days; for mean time to bleeding: non-treated 5.1 days; for colon histology (cryptal structure): day 7, light microscopy; for crypt score: day 7, non-treatment group 4.8; for disease activity index (DAI): i.p. daily (CoPPIX 5 mg/kg; biliverdin 50 μmol/kg)
From the text: Animals. Pathogen-free male C57BL/6 mice, 4-6 weeks of age (Taconic; C57BL/6×129 svj strain) were used in this example. Mice were kept for one week at 4 mice/cage and fed normal laboratory chow and drinking water ad libitum prior to the experiments. All mice weighed between 22.5 g and 27.7 g at the beginning of the trial. The animal experimentation protocol was reviewed and approved by the Animal Care and Use Committees of the Beth Israel Deaconess Medical Center.
Induction of Colitis. Colitis was induced by feeding mice 5% (wt/v) dextran sodium sulfate (DSS) (MW 40,000; ICN Biomedicals Inc., OH), dissolved in distilled water, for a period of 7 days. The resulting condition was termed “DSS-colitis.” Control animals were fed distilled water ad libitum. The mortality rate in the control group and the CO-treated group was 10% (2/20) and 14% (2/14), respectively. These animals were excluded from the statistical analysis. In the other groups, no mortality occurred during 7 days of 5% DSS treatment.
Experimental Reagents and Treatment Protocol. Cobalt protoporphyrin (CoPPIX), zinc protoporphyrin (ZnPPIX, Porphyrin Products, Logan, Utah) and biliverdin dihydrochloride (ICN Biomedicals Inc., OH) were dissolved in a small amount 0.2 M NaOH, subsequently adjusted to a pH of 7.4 with 1 M HCl, and diluted in 0.9% NaCl. The stock solutions (CoPPIX and ZnPPIX=1 mg/ml, biliverdin=10 mM) were aliquoted and kept at −70° C. until used. Light exposure was limited as much as possible. CoPPIX (5 mg/kg), ZnPPIX (20 mg/kg) and biliverdin (50 μmol/kg) were administered to the mice intraperitoneally (i.p.) 24 hours before induction of DSS-colitis and daily thereafter. Desferoxamine (DFO) was prepared in imidazole buffer (50 mM imidazole, 220 mM NaCl, pH 7.4). DFO was injected subcutaneously (s.c.) twice daily (125 mg/kg) or infused i.p. (130 mg/kg/day; pumping rate 0.5 μl/hour for 8 days) by miniosmotic Alzet™ pumps (Alza Corporation, Palo Alto, Calif.) (Postma et al., Exp. Parasitol. 89(3):323-30 1998). The pumps were installed i.p. 24 hours before induction of colitis. When animals were sacrificed at day 7 of DSS treatment, the pumps were removed and evaluated to determine if DFO application had taken place.
CO gas was administrated exogenously by putting animals in a CO exposure chamber (Otterbein et al., Nat. Med. 6(4):422-8, 2000). Briefly, CO at a concentration of 1% (10,000 parts per million (ppm)) in compressed air was mixed with balanced air (21% oxygen) in a stainless steel mixing cylinder before entering the exposure chamber. CO concentrations were controlled by varying the flow rates of CO in a mixing cylinder before delivery to the chamber. Because the flow rate is primarily determined by the O2 flow, only the CO flow was changed to deliver the final concentration to the exposure chamber. A CO analyzer (Interscan Corporation, Chatsworth, Calif.) was used to measure CO levels continuously in the chamber. Mice were placed in the chamber 24 hours before the induction of the colitis and were kept in the exposure chamber during the whole period of the experiment (total of 8 days). […] Animals were removed daily from the chamber to assess weight and stool.
Evaluation of Symptoms of Colitis. All animals were evaluated clinically on a daily basis. The evaluation of each animal included a measurement of weight, hemoccult positivity and examination of stool for the presence of gross blood and stool consistency. The disease activity index (DAI) was calculated by scoring percent weight loss, intestinal bleeding (no blood; occult blood=hemoccult+; gross blood) and stool consistency (normal stool=well-formed pellets; loose stool=pasty and semiformed stools; diarrhea=liquid stool that stuck to the anus) (Table 1).
The animals were sacrificed, and the whole colon from the colo-cecal junction to the anal verge was removed and gently cleaned of stool. […]

[2] = system: HO-1; test: HO-1 expression in donor tissues and islets after CoPP; assay type: in vivo, mice; settings: CoPP given to the donor animal; heart, kidney, pancreas, liver and spleen
Procedure: Induction of HO-1/Administration of biliverdin/bilirubin. When given to the donor, CoPPIX (20 mg/kg) was given 24 hours before islet isolation to induce HO-1 expression. To verify HO-1 expression in different organs after CoPP treatment, tissue samples are collected 24 hours after treatment and snap frozen in liquid nitrogen. Immunohistological analysis of HO-1 expression is performed using an anti-HO-1 antibody. CoPPIX (20 mg/kg) was administrated to the recipient intraperitoneally (i.p.) on day-1, 1, 3, 5 and 7. Biliverdin (50 μmol/kg) or bilirubin (8.5 μmol/kg) was given intraperitoneally to the donor one hour before islet isolation. For the recipient, biliverdin (50 μmol/kg) or bilirubin ([…]) was administered intraperitoneally either daily or twice per day from day-1 until day 13. No further treatment was given afterwards.
Semi-Quantitative PCR. RNA was extracted using Rneasy™ Mini Kits (Qiagen Inc., CA, USA) and reverse transcribed into cDNA with the RNA PCR Kit (TaKaRa, PanVera, Madison, Wis., USA). A total of 2 μg of cDNA was amplified in a 50 μl reaction mix containing 10 μM dNTPs, […] of 5′-prime and 3′-prime oligos, 2.5 U of LA-Taq polymerase (TaKaRa) and MgCl2, specific to each primer pair used. […] PCR products (10-20 μl) were analyzed in an ethidium bromide-stained 1% agarose gel.

SMILES	mean time to development of loose stool [1]	mean time to bleeding [1]	difference in DAI between CoPP-treated and untreated groups ([1]; day 2)	difference in DAI between CoPP-treated and untreated groups ([1]; day 5 (maximum protection))	colon histology (cryptal structure) [1]	crypt score [1]	disease activity index (DAI) ([1]; day 7 of DSS)	difference in DAI between CoPP-treated and untreated groups ([1]; toward the end of the 7 days)	HO-1 expression in donor tissues [2]	mean total percent body weight loss ([1]; day 7 of DSS, i.p. daily from 24 hours before DSS (CoPPIX 5 mg/kg; biliverdin 50 μmol/kg))
C=CC1=C(C)c2cc3[n-]c(cc4nc(cc5[n-]c(cc1n2)c(C)c5CCC(=O)[O-])C(CCC(=O)[O-])=C4C)c(C)c3C=C.[Co+2].[H+].[H+] [CoPP, Cobalt protoporphyrin]	4.6 days	6.9 days	0.4	1.64	remaining cryptal structures and intact epithelial surface	2.6	2.8	1.04	HO-1 expression was observed in several different tissues	–
C=CC1=C(C)/C(=C/C2=NC(=C\c3[nH]c(/C=C4\NC(=O)C(C)=C4C=C)c(C)c3CCC(=O)O)/C(CCC(=O)O)=C2C)NC1=O [biliverdin, biliverdin dihydrochloride]	4.4 days	6.2 days	–	–	preserved cryptal structure	3	3.3	–	–	16.5%
